Measured values published in patent US20100068147A1, “DENGUE DIAGNOSIS AND TREATMENT” (Agency for Science , Technology and Research, priority 2006, published 2010).
Where a SMILES comes first, the peptide text is derived from it. [ ]: non-standard residue; d: D form. The star is where a group is joined. Nle = CCCC[C@H](N)C(=O)O; Nva = CCC[C@H](N)C(=O)O; Cbz = O=C(OCc1ccccc1)*

Experiments:
dengue virus TSV01 = assay: Plaque assay of supernatants of HepG2 cells infected with dengue virus TSV01 in the presence of ubiquitin-proteasome inhibitors; type: cell-based, dengue virus serotype 2; details: for virus replication in the HepG2 cell line by plaque assay of the cell culture supernatants: FIG. 4A, two days after infection, MG-132 0.4 and 0.6 μM, ALLN 10 and 15 μM, MOI 10, vs DMSO alone; for virus replication in the HepG2 cell line by plaque assay of the cell culture supernatants / virus replication by plaque assay: 2 hrs prior to infection; for virus replication by plaque assay: FIG. 7G, HepG2, MG-132 0.04 and 0.4 μM, ALLN 1 and 10 μM, MOI 10, 48 hrs
Protocol: The HepG2 cell line is infected with TSV01, a serotype 2 dengue virus (Genbank AY037116; McBride and Vasudevan, 1995), and cells harvested over a succession of time points up to three days post-infection.
In a second experiment we applied specific compounds to our in vitro experiment (described above) that are known to alter the function of these (and other) genes in this pathway (Table E1 below).
HepG2 cells (ATCC) are treated with proteasome inhibitors prior to infection with dengue virus. […]
HepG2 cells are cultured ON in 24 well plates. […]
Cell culture supernatants are collected and assayed for dengue virus by plaque assay. Plaque forming units per ml are expressed as the mean percentage of the highest number of pfu/ml (DMSO alone)±SEM, (n=3). Cytotoxicity is measured using FDA and results are expressed as the mean percentage compared to DMSO alone±SEM, (n=3). “*” indicates p<0.05 and “**”indicates p<0.005 by students t-test comparing each treatment to DMSO alone.
The type 2 dengue virus strain TSV01 is obtained from an outbreak in Townsville, Australia (McBride and Vasudevan 1995) (GenBank, accession number AY037116). TSV01 is cultured in the C6/36 cell line (from the Aedes albopictus mosquito) with virus added to cells in a T175 flask (MOI 0.01) and incubated for 1 hr at 28° C. with brief mixing every 20 min. Media is removed and cells washed in fresh media then media with 5% FBS added and cells incubated for 5 days at 28° C. Cell culture supernatants are removed and centrifuged at 1000×g for 10 min at 4° C. then pooled and stored in aliquots at −80° C. Heat-inactivated virus is prepared by incubating virus samples at 55° C. for 1 hr, with heat-inactivation confirmed by plaque assay.
For plaque assay, BHK-21 cells are cultured ON in 24 well plates before media is removed and serial dilutions (10-fold) of cell culture supernatants added to individual wells. Plates are incubated for 1 hr before media is aspirated and replaced with 0.5 ml of 0.8% methyl-cellulose medium (with 2% FBS). Plates are then incubated for 5 days before the media is removed and cells fixed in 4% formaldehyde for 20 min then rinsed in water and stained with crystal violent for 20 min and rinsed again. Plaques are counted manually and concentrations of plaque forming units per ml (pfu/ml) of the sample cell culture supernatant calculated.

calpain I = target: T1, calpain I (Homo sapiens, UniProt P07384); details: cited from earlier work
T1 sequence (P07384 1-714): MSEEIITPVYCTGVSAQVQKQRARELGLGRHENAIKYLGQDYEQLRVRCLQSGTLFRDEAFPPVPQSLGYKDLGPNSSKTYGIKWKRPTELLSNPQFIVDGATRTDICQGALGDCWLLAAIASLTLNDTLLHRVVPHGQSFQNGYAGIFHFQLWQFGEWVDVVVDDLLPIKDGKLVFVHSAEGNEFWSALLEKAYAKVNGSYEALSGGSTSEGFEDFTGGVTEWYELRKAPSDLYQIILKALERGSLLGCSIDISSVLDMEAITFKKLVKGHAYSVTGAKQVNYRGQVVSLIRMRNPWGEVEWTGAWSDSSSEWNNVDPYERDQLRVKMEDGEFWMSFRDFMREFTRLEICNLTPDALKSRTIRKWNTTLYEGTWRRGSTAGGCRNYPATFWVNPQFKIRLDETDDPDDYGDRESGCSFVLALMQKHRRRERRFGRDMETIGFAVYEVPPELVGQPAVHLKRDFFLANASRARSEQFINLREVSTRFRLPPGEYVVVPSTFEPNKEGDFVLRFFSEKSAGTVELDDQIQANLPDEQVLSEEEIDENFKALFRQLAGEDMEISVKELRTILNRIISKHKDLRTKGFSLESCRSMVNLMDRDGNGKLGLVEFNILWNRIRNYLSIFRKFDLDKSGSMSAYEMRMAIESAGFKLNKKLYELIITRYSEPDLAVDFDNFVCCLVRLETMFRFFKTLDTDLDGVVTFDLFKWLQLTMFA
T1 sequence (P04632 1-268 partner): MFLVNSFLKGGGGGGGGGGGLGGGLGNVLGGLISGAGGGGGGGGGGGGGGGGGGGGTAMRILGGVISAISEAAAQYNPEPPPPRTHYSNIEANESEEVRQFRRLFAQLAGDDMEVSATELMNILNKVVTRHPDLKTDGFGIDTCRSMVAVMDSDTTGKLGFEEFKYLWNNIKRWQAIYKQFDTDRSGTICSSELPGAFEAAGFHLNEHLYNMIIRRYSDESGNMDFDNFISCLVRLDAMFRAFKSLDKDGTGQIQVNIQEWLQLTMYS

proteasome = details: cited from earlier work
[1] = target: calpain I, calpain II, cathepsin B, and cathepsin L; details: one range for the four enzymes; cited from earlier work
calpain II = target: T2, calpain II (Homo sapiens, UniProt P17655); details: cited from earlier work
T2 sequence (P17655 1-700): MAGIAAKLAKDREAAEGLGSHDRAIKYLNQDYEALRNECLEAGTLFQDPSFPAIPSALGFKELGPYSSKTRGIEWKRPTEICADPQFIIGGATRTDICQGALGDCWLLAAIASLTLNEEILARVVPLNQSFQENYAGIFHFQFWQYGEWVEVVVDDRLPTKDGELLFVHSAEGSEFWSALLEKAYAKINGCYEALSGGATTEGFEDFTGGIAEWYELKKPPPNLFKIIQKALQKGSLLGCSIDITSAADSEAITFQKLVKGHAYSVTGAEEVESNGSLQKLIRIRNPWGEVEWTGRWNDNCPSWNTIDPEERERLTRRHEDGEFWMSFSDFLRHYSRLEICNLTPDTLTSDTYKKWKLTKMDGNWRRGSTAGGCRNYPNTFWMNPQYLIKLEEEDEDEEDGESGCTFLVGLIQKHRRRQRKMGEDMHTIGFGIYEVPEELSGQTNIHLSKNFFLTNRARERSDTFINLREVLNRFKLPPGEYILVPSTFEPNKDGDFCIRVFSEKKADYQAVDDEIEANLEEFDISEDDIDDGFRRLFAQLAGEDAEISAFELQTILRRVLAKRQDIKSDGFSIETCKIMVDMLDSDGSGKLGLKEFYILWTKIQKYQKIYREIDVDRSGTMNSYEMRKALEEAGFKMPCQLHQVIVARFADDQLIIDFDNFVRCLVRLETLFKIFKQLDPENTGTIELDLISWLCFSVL
T2 sequence (P04632 1-268 partner): T1 sequence (P04632 1-268 partner)

cathepsin L = cathepsin L (Homo sapiens, UniProt P07711); details: cited from earlier work
26S proteasome = details: cited from earlier work
20S proteasome = details: cited from earlier work
26S complex = details: cited from earlier work
NF-kB activation = details: cited from earlier work
[2] = target: chymotrypsin-like activity (Homo sapiens, UniProt P28074); details: cited from earlier work

Chain of cathepsin L (P07711 114-333, species assumed): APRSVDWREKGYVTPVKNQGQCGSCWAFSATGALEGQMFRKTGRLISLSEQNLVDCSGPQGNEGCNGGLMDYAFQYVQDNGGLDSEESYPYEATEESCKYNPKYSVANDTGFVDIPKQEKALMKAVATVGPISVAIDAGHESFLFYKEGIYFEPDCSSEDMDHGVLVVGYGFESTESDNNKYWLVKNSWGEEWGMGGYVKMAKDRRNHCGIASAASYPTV

For `CCCC[C@@H](C=O)NC(=O)[C@H](CC(C)C)NC(=O)[C@H](CC(C)C)NC(C)=O` [ALLN, N-Acetyl-Leu-Leu-Nle-CHO] (Ac-Leu-Leu-[Nle]-aldehyde), the “virus replication in the HepG2 cell line by plaque assay of the cell culture supernatants” value (dengue virus TSV01) is given as “significantly reduced”, the “virus replication by plaque assay” value (dengue virus TSV01) is given as “significantly and consistently reduced” and the Ki (calpain I) is given as 190 nM. For the same molecule, the Ki (proteasome) was 6000 nM, the Ki [1] was 150 to 500 nM and the Ki (calpain II) was 220 nM. The Ki (cathepsin L) was 0.5 nM.

In the case of `CSCC[C@@H](C=O)NC(=O)[C@H](CC(C)C)NC(=O)[C@H](CC(C)C)NC(C)=O` [Calpain Inhibitor II, Ac-Leu-Leu-Methional] (Ac-Leu-Leu-Met-aldehyde), the “inhibition of proteasome activity” value (proteasome) is listed as “does not” and the Ki [1] is listed as 120 to 600 nM.

In the case of `C[C@@H]1C[C@H]2[C@@H]3CCC4=CC(=O)C=C[C@]4(C)[C@@]3(F)[C@@H](O)C[C@]2(C)[C@@]1(O)C(=O)CO` [Dexamethasone, dexamethasone], the “effect on viral replication” value (dengue virus TSV01; HepG2 infection model, data not shown) is reported as “no effect”.

In the case of `CCC[C@@H](C=O)NC(=O)[C@H](CC(C)C)NC(=O)[C@H](CC(C)C)NC(=O)OCc1ccccc1` [MG-115, Z-Leu-Leu-Norvalinal] (Cbz-Leu-Leu-[Nva]-aldehyde), the Ki (26S proteasome) is listed as 35 nM and the Ki (20S proteasome) is listed as 21 nM.

For `CC(C)C[C@@H](C=O)NC(=O)[C@H](CC(C)C)NC(=O)[C@H](CC(C)C)NC(=O)OCc1ccccc1` [MG-132, Carbobenzoxy-L-leucyl-L-leucyl-L-leucinal] (Cbz-Leu-Leu-Leu-aldehyde), the “effective concentrations, reduction of degradation of ubiquitin-conjugated proteins” value (26S complex) is given as “micromolar concentrations. Sequence: Z-Leu-”, the “virus replication in the HepG2 cell line by plaque assay of the cell culture supernatants” value (dengue virus TSV01) is given as “significantly reduced” and the “virus replication by plaque assay” value (dengue virus TSV01) is given as “significantly and consistently reduced”. The IC50 (NF-kB activation) was 3000 nM and the Ki (proteasome) was 4 nM.

For `CC(C)C[C@H](NC(=O)OCc1ccccc1)C(=O)N[C@@H](CC(C)C)C(=O)N[C@H](C=O)Cc1ccccc1` [Proteasome Inhibitor II, Z-Leu-Leu-Phenylalaninal] (Cbz-Leu-Leu-Phe-aldehyde), the Ki [2] is given as 460 nM.

For `CC(C)[C@H](O)[C@@]12NC(=O)[C@H](C)[C@@H]1OC2=O` [clasto-Lactacystin β-Lactone], the “sensitivity relative to its precursor, lactacystin” value (20S proteasome; in vitro) is given as ~10-fold more sensitive than its precursor,.
